Test results published in patent US12239645B2, “Targeted dosing for the treatment of complement mediated disorders” (Achillion Pharmaceuticals, Inc., priority 2018, dated 2025).
In brackets after ≈: the same amount, converted by molar mass. Like-named read-outs stand apart in the source and are kept apart here.

Test system: complement alternative pathway (AP) activity
Test: MAD study: ex vivo serum AP hemolysis activity and PK-PD analysis
Type: in vivo, human
Conditions: for minimum AP activity following dosing: Days 7 and 14
Description: Ex vivo serum AP hemolysis assays were conducted in 96-well microtiter plates divided into two parts, one for hemolysis and the other for serum background color subtraction. Briefly, a suspension of rabbit red blood cells (RBCs) was centrifuged at 800×g at 4° C. for 3 minutes and the supernatant was removed to get rid of the RBC debris. The RBC cell pellet was re-suspended gently with pre-chilled gelatin veronal buffer (GVB0) containing 10 mM MgEGTA to a density of 5×10^8 cells/mL. Other controls including buffer, spontaneous rabbit RBC lysis, 100% RBC lysis (in water), and normal serum control were set up alongside the test samples as well. Serum was placed in a 37° C. water-bath until mostly thawed and immediately transferred to ice bath. 20% serum was prepared with GVB0-MgEGTA buffer and kept at ice bath before testing. Reactions were carried out in a 96 well plate by mixing 50 μl of 20% serum with equal volume of GVB0-MgEGTA buffer and then quickly adding 20 μl of RBC suspension. The plate was shaken on a microtiter plate shaker for 5 seconds and then incubated at 37° C. for 30 minutes. Halfway during the incubation period, the plate was shaken for another 5 seconds as described above. At the end of the incubation, the plate was centrifuged at 800×g at 4° C. for 3 minutes to pellet the un-lysed rabbit RBCs. 80 μl of supernatant was removed carefully from all wells and transferred to a clear flat-bottom microtiter plate for the measurement of optical absorbance at 405 nm (A405) in a Molecular Devices Spectramax Plus plate reader. AP hemolysis in each well was calculated relative to the activity of the NHS reference sample formulas as follows: Hemolysis (%)=((Hm−Bk)−(Sp−Bf))/((NH−BkNH)−(Sp−Bf))×100%
where Hm=A405 in the hemolysis well, Bk=A405 in the corresponding background well, Sp=mean A405 in the spontaneous hemolysis wells, Bf=mean A405 in the buffer alone wells, NH=mean A405 in the reference NHS wells, and BkNH=mean A405 in the corresponding background wells.
The PK-PD relationship was evaluated using time-matched plasma Compound 1 concentrations and serum AP inhibition values by non-linear regression with GraphPad Prism (La Jolla, CA) using the following two models: • 1. The simple Emax model to determine the 50% effective concentration (EC50): Y=E0+Emax×X/(EC50+X) where X=plasma Compound 1 concentration, Y=percent inhibition in the corresponding serum sample, E0=0% inhibition (pre-dose AP activity), and Emax=100% inhibition. • 2. The four-parameter sigmoidal model to determine EC50 and the 90% effective concentration (EC90): Y=E0+(Emax−E0)/(1+10^((Log EC50−X)×HillSlope)) where X, Y, E0, and Emax are defined as above (Emax model) and HillSlope=the slope factor or Hill slope. Pharmacodynamic and Pharmacokinetic Results AP Activity Measured with AP Hemolysis
A multiple ascending dose (MAD) study of Compound 1 with two additional single-dose cohorts was also completed. […] Secondary objectives included evaluation of the pharmacokinetic (PK) profile and the relationship between Compound 1 PK and pharmacodynamic (PD) characteristics, that is, the inhibition of complement alternative pathway (AP) activity (PK/PD). In the MAD study, multiple-dose pharmacokinetics and pharmacodynamics of Compound 1 were evaluated in four dose groups administered Compound 1 (40, 80, 120 and 200 mg BID) in the fasted state for 14-days (Table 3). Eight subjects received active drug in each group; eight subjects received placebo in the first dose group (40 mg) and two subjects received placebo in each of the other three dose groups. Two additional cohorts were administered Compound 1 at single doses of 240 mg (fasted subjects) and 120 mg (fed subjects) (Table 3). The two single-dose cohorts each comprised six subjects receiving active drug and two subjects receiving placebo. […]

[1] = 40 mg BID, Day 14, AP hemolysis
[2] = 40 mg BID, Days 7 and 14 Combined Analysis, AP hemolysis
[3] = 80 mg BID, Day 14, AP hemolysis
[4] = 80 mg BID, Days 7 and 14 Combined Analysis, AP hemolysis
[5] = 120 mg BID, Day 7, AP hemolysis
[6] = 120 mg BID, Day 14, AP hemolysis
[7] = 120 mg BID, Days 7 and 14 Combined Analysis, AP hemolysis
[8] = 120 mg and 200 mg BID, 14 days, FIG. 13
[9] = 200 mg BID, Day 7, AP hemolysis
[10] = 200 mg BID, Day 14, AP hemolysis
[11] = 200 mg BID, Days 7 and 14 Combined Analysis, AP hemolysis
[12] = Homo sapiens, sigmoidal model, multiple-dose cohorts, AP hemolysis

## CC(=O)c1nn(CC(=O)N2[C@H](C(=O)Nc3nc(Br)ccc3C)C[C@@]3(C)C[C@@H]23)c2ccc(-c3cnc(C)nc3)cc12 [Compound 1, (1R,3S,5R)-2-(2-(3-acetyl-5-(2-methylpyrimidin-5-yl)-1H-indazol-1-yl)acetyl)-N-(6-bromo-3-methylpyridin-2-yl)-5-methyl-2-azabicyclo[3.1.0]hexane-3-carboxamide]
40 mg BID, Day 7, AP hemolysis
  % AUEC0-12, Mean: 49.9%
  DURATION0-12 (time with AP inhibition 90% or greater), Mean: 2.0 h
[1]
  % AUEC0-12, Mean: 61.4%
  DURATION0-12 (time with AP inhibition 90% or greater), Mean: 2.6 h
40 mg BID
  minimum AP activity following dosing: 4.00%
[2]
  % AUEC0-12, Mean: 55.6%
  DURATION0-12 (time with AP inhibition 90% or greater), Mean: 2.3 h
80 mg BID, Day 7, AP hemolysis
  % AUEC0-12, Mean: 87.4%
  DURATION0-12 (time with AP inhibition 90% or greater), Mean: 7.3 h
[3]
  % AUEC0-12, Mean: 87.7%
  DURATION0-12 (time with AP inhibition 90% or greater), Mean: 8.0 h
[4]
  % AUEC0-12, Mean: 87.6%
  DURATION0-12 (time with AP inhibition 90% or greater), Mean: 7.6 h
120 mg BID, 0 h to 10 h on Day 7 and 0 h to 12 h on Day 14
  mean AP activity: below 10%
[5]
  % AUEC0-12, Mean: 97.5%
  DURATION0-12 (time with AP inhibition 90% or greater), Mean: 10.9 h
[6]
  % AUEC0-12, Mean: 98.8%
  DURATION0-12 (time with AP inhibition 90% or greater), Mean: 11.6 h
[7]
  % AUEC0-12, Mean: 98.2%
  DURATION0-12 (time with AP inhibition 90% or greater), Mean: 11.3 h
[8]
  average reduction in AP hemolysis: over 95%
  reduction in AP hemolysis for the duration of the study: over 90%
120 mg single dose fed, from 2 h through 6 h
  serum AP hemolysis activity: ≤ 10%
200 mg BID, 0 h to 12 h on Days 7 and 14
  mean AP activity: below 10%
[9]
  % AUEC0-12, Mean: 99.5%
  DURATION0-12 (time with AP inhibition 90% or greater), Mean: 11.9 h
[10]
  % AUEC0-12, Mean: 98.8%
  DURATION0-12 (time with AP inhibition 90% or greater), Mean: 11.5 h
[11]
  % AUEC0-12, Mean: 99.1%
  DURATION0-12 (time with AP inhibition 90% or greater), Mean: 11.7 h
240 mg single dose
  time mean inhibition persisted at 90% or greater post-dose: at least 12 hours
240 mg single dose fasted, from 1.5 h through 16 h
  serum AP hemolysis activity: ≤ 10%
240 mg single dose, within two hours of dosing
  AP inhibition, all subjects: ≥ 90%
Groups 2 through 4 (80, 120, 200 mg BID)
  minimum AP activity following dosing: 0.00%
Homo sapiens, 0 h, 40 mg BID, Days 6 Through 14, AP hemolysis, read-out: AP Inhibition at 0 hr, Mean
  inhibition at 40 mg: 28.7%
Homo sapiens, 0 h, 80 mg BID, Days 6 Through 14, AP hemolysis, read-out: AP Inhibition at 0 hr, Mean
  inhibition at 80 mg: 74.1%
Homo sapiens, 0 h, 120 mg BID, Days 6 Through 14, AP hemolysis, read-out: AP Inhibition at 0 hr, Mean
  inhibition at 120 mg: 97.2%
Homo sapiens, 0 h, 200 mg BID, Days 6 Through 14, AP hemolysis, read-out: AP Inhibition at 0 hr, Mean
  inhibition at 200 mg: 97.6%
Homo sapiens, 40 mg BID, Day 7, AP hemolysis, read-out: AP Inhibition at 0 hr, Mean
  inhibition at 40 mg: 20%
Homo sapiens, 40 mg BID, Day 7, AP hemolysis, read-out: AP Inhibition at 12 hr, Mean
  inhibition at 40 mg: 17.5%
Homo sapiens, 40 mg BID, Day 14, AP hemolysis, read-out: AP Inhibition at 0 hr, Mean
  inhibition at 40 mg: 29.2%
Homo sapiens, 40 mg BID, Day 14, AP hemolysis, read-out: AP Inhibition at 12 hr, Mean
  inhibition at 40 mg: 29%
Homo sapiens, 80 mg BID, Day 7, AP hemolysis, read-out: AP Inhibition at 0 hr, Mean
  inhibition at 80 mg: 60.5%
Homo sapiens, 80 mg BID, Day 7, AP hemolysis, read-out: AP Inhibition at 12 hr, Mean
  inhibition at 80 mg: 61.5%
Homo sapiens, 80 mg BID, Day 14, AP hemolysis, read-out: AP Inhibition at 0 hr, Mean
  inhibition at 80 mg: 79%
Homo sapiens, 80 mg BID, Day 14, AP hemolysis, read-out: AP Inhibition at 12 hr, Mean
  inhibition at 80 mg: 52%
Homo sapiens, 120 mg BID, AP Hemolysis and AP Wieslab assays, read-out: AP inhibition, mean value at Ctrough
  inhibition at 120 mg: > 90%
Homo sapiens, 120 mg BID, Day 7, AP hemolysis, read-out: AP Inhibition at 0 hr, Mean
  inhibition at 120 mg: 91.8%
Homo sapiens, 120 mg BID, Day 7, AP hemolysis, read-out: AP Inhibition at 12 hr, Mean
  inhibition at 120 mg: 86%
Homo sapiens, 120 mg BID, Day 14, AP hemolysis, read-out: AP Inhibition at 0 hr, Mean
  inhibition at 120 mg: 99.7%
Homo sapiens, 120 mg BID, Day 14, AP hemolysis, read-out: AP Inhibition at 12 hr, Mean
  inhibition at 120 mg: 89.7%
Homo sapiens, 200 mg BID, AP Hemolysis and AP Wieslab assays, read-out: AP inhibition, mean value at Ctrough
  inhibition at 200 mg: > 95%
Homo sapiens, 200 mg BID, Day 7, AP hemolysis, read-out: AP Inhibition at 0 hr, Mean
  inhibition at 200 mg: 95%
Homo sapiens, 200 mg BID, Day 7, AP hemolysis, read-out: AP Inhibition at 12 hr, Mean
  inhibition at 200 mg: 97.3%
Homo sapiens, 200 mg BID, Day 14, AP hemolysis, read-out: AP Inhibition at 0 hr, Mean
  inhibition at 200 mg: 98.8%
Homo sapiens, 200 mg BID, Day 14, AP hemolysis, read-out: AP Inhibition at 12 hr, Mean
  inhibition at 200 mg: 92.8%
Homo sapiens, 12 h, 40 mg BID, Days 6 Through 14, AP hemolysis, read-out: AP Inhibition at 12 hr, Mean
  inhibition at 40 mg: 23.3%
Homo sapiens, 12 h, 80 mg BID, Days 6 Through 14, AP hemolysis, read-out: AP Inhibition at 12 hr, Mean
  inhibition at 80 mg: 56.8%
Homo sapiens, 12 h, 120 mg BID, Days 6 Through 14, AP hemolysis, read-out: AP Inhibition at 12 hr, Mean
  inhibition at 120 mg: 87.8%
Homo sapiens, 12 h, 200 mg BID, Days 6 Through 14, AP hemolysis, read-out: AP Inhibition at 12 hr, Mean
  inhibition at 200 mg: 95.1%
Homo sapiens, at Ctrough of about 80 ng/mL, MAD, ex vivo AP activity assays
  inhibition at 0.08 µg/mL: ~90%
Homo sapiens, at Ctrough of about 150 ng/mL, MAD, ex vivo AP activity assays
  inhibition at 0.15 µg/mL: > 95%
Homo sapiens, po, steady state Ctrough, oral 120 mg BID, read-out: mean alternative pathway inhibition
  inhibition at 120 mg: > 95%
Homo sapiens, simple Emax model, multiple-dose cohorts, AP hemolysis
  EC50: 0.0191 µg/mL (≈ 0.0317 µM)
Homo sapiens, sigmoidal model, multiple ascending dose, ex-vivo AP hemolysis, FIG. 12, read-out: modeled IC90 drug plasma concentration (90% inhibition level)
  IC90: 0.088 µg/mL (≈ 0.146 µM)
[12]
  EC50: 0.0246 µg/mL (≈ 0.0408 µM)
  EC90: 0.0881 µg/mL (≈ 0.146 µM)
All doses, three days after the last dose
  recovery of AP activity to approximately pre-dose levels: ≤ 17 days
Sigmoidal model, FIG. 12
  potency relative to Danicopan (IC90 plasma concentration): more than 2.5 times
single-dose cohorts 240 mg and 120 mg
  time of recovery of AP hemolysis activity to nearly pre-dose levels: ≤ 48 h
